We go through 13 molecules from patent US11130960B2, “Methods for conferring or enhancing herbicide resistance on plants and/or alga with protoporphyrinogen oxidase variants” (FARM HANNONG CO., LTD., priority 2014, dated 2021).

One test has as its system CyPPO2 variant. Nature of the test: Growth inhibition of BT3(ΔPPO) E. coli transformed with 98% homology variant, LB solid medium. Format: cell-based, Oscillatoria nigro-viridis PCC 7112. The conditions noted are these: 1% agar LB solid medium, 37° C., 14~16 hours, light. The source says:
(§1) To investigate amino acid sequence homology range of CyPPO2, CyPPO4 and CyPPO8 which maintain herbicide resistance, a part of the amino acid sequence of CyPPO2, CyPPO4 or CyPPO8 protein was replaced by a part of the amino acid sequence of NtPPO (tobacco-derived PPO gene). As a result, the amino acid sequence of the resulting CyPPO2 variant is represented by SEQ ID NO: 12, and its nucleotide sequence thereof is represented by SEQ ID NO: 13. […] Further, the amino acid sequence of the CyPPO4 variant is represented by SEQ ID NO: 14, and its nucleotide sequence thereof is represented by SEQ ID NO: 15. […] Further, the amino acid sequence of the CyPPO8 variant is represented by SEQ ID NO: 16, and its nucleotide sequence thereof is represented by SEQ ID NO: 17.
(§2) Herbicide resistance of the amino acid sequence variant of CyPPO2, the amino acid sequence variant of CyPPO4, and the amino acid sequence variant of CyPPO8 was investigated in PPO-deficient BT3 E. coli [BT3(ΔPPO)], and a specific experimental method is similar to that of Example 3. In the same manner as in Example 3, as a negative control, the wild-type PPO (wild-type AtPPO1) of Arabidopsis thaliana was employed as a reference for herbicide-sensitivity. As a positive control, the mutant AtPPO1 which was prepared by amino acid replacement of Y426M and S305L in the wild-type amino acid sequence was employed as a reference for herbicide-resistance.
(§3) An autoclave was used under conditions of 121° C. and 15 minutes, and an incubator was used at 37° C. with lighting of 169 μmol m^−2 s^−1 for a culture time of 14˜16 hours. A UV-visible spectrophotometer was used at 600 nm. PCR was performed under conditions of at 94° C. for 4 minutes, and 25 cycles (at 94° C. for 30 seconds, at 56˜60° C. for 30 seconds and at 72° C. for 3 minutes), at 72° C. for 5 minutes and at 4° C. for 5 minutes. Respective herbicides were prepared at a concentration of 200 mM in DMSO, and stored at −20° C. Before use, the herbicides were diluted and added to LB broth medium (containing […]).
(§4) Saturated cells were inoculated in 3 ml of LB liquid medium containing chloramphenicol, and then cultured at 37° C., 200 rpm for 5 hours. Density of the cultured cells was measured at 600 nm, and the transformants were diluted with LB liquid medium to have the same absorbance (OD600) per 1 ml thereof (OD600=0.5). Agar was added to LB liquid medium at a concentration of 1%, and then autoclaved. Chloramphenicol (34 μg/ml) and herbicide were added and mixed. Cells diluted equally was diluted at a density of 10^0, 10^−1, 10^−2, 10^−3, 10^−4, and 10^−5. Each 10 μl of the cells was dropped on 1% agar, LB solid medium, and cultured in a 37° C. incubator for 14˜16 hours (light condition: 169 μmol m^−2s^−1).
(§5) To prepare BT3(ΔPPO) competent cells, BT3(ΔPPO) strain was added to 5 ml of LB broth containing 50 μg/ml kanamycin and 20 μg/ml hematin, and cultured in a 37° C. shaking incubator for 12 hours in the dark. Thereafter, 5 ml of the culture was added to 100 ml of LB broth containing 20[…] μg/ml hematin, and cultured in a 37° C. shaking incubator in the dark until OD600 reached 0.5. BT3(ΔPPO) competent cells were prepared from the cultured E. coli using CaCl2 according to protocols for preparing competent cells. Next, to transform the BT3(ΔPPO) strain with the respective vectors harboring the CyPPO2 variant, CyPPO4 variant and CyPPO8 variant, 5 μl of the vector was added to 100 μl of BT3(ΔPPO) competent cells, and the mixture was mixed well, allowed to react on ice for 20 minutes, and then left at 42° C. for 40 seconds. After stabilization on ice for 2 minutes, 1 ml of LB broth was added to BT3(ΔPPO), and cultured at 37° C. for 1 hour with shaking. The cells cultured in the medium were collected according to the type of the gene insert, and then spread on LB solid medium containing chloramphenicol (34 μg/ml), and cultured at 37° C. for 12 hours or longer. Thereafter, single colonies thereof were cultured in LB liquid medium. […]

The next test has as its system CyPPO4 variant. Described as above. Format: cell-based, Lyngbya sp. PCC 8106. The conditions noted are these: 1% agar LB solid medium, 37° C., 14~16 hours, light.
From the text: as §1, §2, §3, §4, §5

With `O=C(O)c1cc(Oc2ccc(C(F)(F)F)cc2Cl)ccc1[N+](=O)[O-]` [Acifluorfen], the “concentration at which growth inhibition was hardly observed” value in the test on CyPPO2 variant and in the test with CyPPO4 variant was 25 µM each time.
As for `C=CCOC(=O)C(C)(C)OC(=O)c1cc(-n2c(=O)cc(C(F)(F)F)n(C)c2=O)ccc1Cl` [Butafenacil], the “concentration at which growth inhibition was hardly observed” value in the test with CyPPO2 variant and in the test on CyPPO4 variant was 25 µM in each case.
Take `C#CCN1C(=O)COc2cc(F)c(N3C(=O)C4=C(CCCC4)C3=O)cc21` [Flumioxazin]: the “concentration at which growth inhibition was hardly observed” value with CyPPO2 variant and in the test on CyPPO4 variant was 25 µM in each case.
For the molecule `COC(=O)CSc1cc(/N=c2\sc(=O)n3n2CCCC3)c(F)cc1Cl` [Fluthiacet-methyl], the “concentration at which growth inhibition was hardly observed” value in the test with CyPPO2 variant and in the test on CyPPO4 variant was 25 µM each time.
As for `CS(=O)(=O)NC(=O)c1cc(Oc2ccc(C(F)(F)F)cc2Cl)ccc1[N+](=O)[O-]` [Fomesafen], the “concentration at which growth inhibition was hardly observed” value in the test on CyPPO2 variant and in the test on CyPPO4 variant was 25 µM throughout.
With `CC(C)Oc1cc(-n2nc(C(C)(C)C)oc2=O)c(Cl)cc1Cl` [Oxadiazon], the “concentration at which growth inhibition was hardly observed” value in the test with CyPPO2 variant and in the test on CyPPO4 variant was 25 µM throughout.
As for `CCOc1cc(Oc2ccc(C(F)(F)F)cc2Cl)ccc1[N+](=O)[O-]` [Oxyfluorfen], the “concentration at which growth inhibition was hardly observed” value with CyPPO2 variant and in the test with CyPPO4 variant was 25 µM throughout.
As to `CC(C)=C1OC(=O)N(c2cc(OC3CCCC3)c(Cl)cc2F)C1=O` [Pentoxazone], the “concentration at which growth inhibition was hardly observed” value with CyPPO2 variant and in the test with CyPPO4 variant was 25 µM throughout.
`C#CCN(C)c1c(C#N)cnn1-c1nn2c(c1Cl)CCCC2` [Pyraclonil]: the “concentration at which growth inhibition was hardly observed” value in the test with CyPPO2 variant and in the test with CyPPO4 variant was 25 µM each time.
Turning to `CCOC(=O)COc1cc(-c2nn(C)c(OC(F)F)c2Cl)c(F)cc1Cl` [Pyraflufen-ethyl], the “concentration at which growth inhibition was hardly observed” value with CyPPO2 variant and with CyPPO4 variant was 25 µM each time.
For the molecule `CC(C)N(C)S(=O)(=O)NC(=O)c1cc(-n2c(=O)cc(C(F)(F)F)n(C)c2=O)c(F)cc1Cl` [Saflufenacil], the “concentration at which growth inhibition was hardly observed” value in the test on CyPPO2 variant and in the test on CyPPO4 variant was 25 µM throughout.
Take `Cc1nn(-c2cc(NS(C)(=O)=O)c(Cl)cc2Cl)c(=O)n1C(F)F` [Sulfentrazone]: the “concentration at which growth inhibition was hardly observed” value in the test on CyPPO2 variant and with CyPPO4 variant was 25 µM in each case.
`COC(=O)CCNC(=O)C(C)Sc1cc(-n2c(=O)cc(C(F)(F)F)n(C)c2=O)c(F)cc1Cl` (centres unmarked) [Tiafenacil]: the “concentration at which growth inhibition was hardly observed” value with CyPPO2 variant and in the test on CyPPO4 variant was 25 µM throughout.
